The source of these data is patent US10087172B2, “Compounds and their methods of use” (AGIOS PHARMACEUTICALS, INC, priority 2012, dated 2018).

The experiment deals with T1, glutaminase (GAC) (Homo sapiens, UniProt O94925).
T1 sequence (O94925 55-598 isoform O94925-3 limits assumed): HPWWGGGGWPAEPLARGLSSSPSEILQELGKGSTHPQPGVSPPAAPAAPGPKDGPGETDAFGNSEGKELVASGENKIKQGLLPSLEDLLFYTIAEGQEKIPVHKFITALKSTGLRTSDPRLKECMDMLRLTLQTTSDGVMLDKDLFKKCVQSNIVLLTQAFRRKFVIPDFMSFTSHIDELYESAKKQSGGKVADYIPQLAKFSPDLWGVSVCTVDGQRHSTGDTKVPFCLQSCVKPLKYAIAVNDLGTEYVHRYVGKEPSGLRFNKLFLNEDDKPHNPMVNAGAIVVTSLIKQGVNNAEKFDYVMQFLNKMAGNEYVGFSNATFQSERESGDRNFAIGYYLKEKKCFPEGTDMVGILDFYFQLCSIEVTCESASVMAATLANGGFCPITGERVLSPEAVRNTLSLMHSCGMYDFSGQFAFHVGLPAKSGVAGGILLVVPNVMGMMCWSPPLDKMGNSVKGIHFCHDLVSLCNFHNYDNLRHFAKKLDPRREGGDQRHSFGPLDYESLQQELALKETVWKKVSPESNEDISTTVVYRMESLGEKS
The experiment in a line: Glutaminase (GAC) coupled endpoint enzymatic assay (glutamate dehydrogenase/diaphorase/resazurin, Ex544/Em590). The experiment is classed as biochemical. The settings on record: inhibition of glutaminase, tested in an assay of Example A or Example B; class symbols A-E. In outline: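 Glutamate formed by GAC is coupled through GDH and diaphorase to resorufin fluorescence (Ex544/Em590), read after an SDS stop. Buffer pH 8.5 holds phosphate; glutamine is at Km, with 1.56 mM NAD in the enzyme mix. Compound and enzyme mix are preincubated 60 min at room temperature before substrate addition.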
Background: The colour change of resazurin is a common sign of viable cells or microbes.
As to `O=C(Nc1nnc([C@H]2CCC[C@H](c3nnc(NC(=O)[C@H](O)c4ccccc4)s3)C2)s1)[C@H](O)c1ccccc1` [Compound 370, (2R,2′R)—N,N′-(5,5′-((1S,3S)-cyclohexane-1,3-diyl)bis(1,3,4-thiadiazole-5,2-diyl))bis(2-hydroxy-2-phenylacetamide)], the IC50 (usually the concentration that gives 50% inhibition) was less than 100 nM.

The compound `O=C(CN1CCCC1=O)Nc1nnc([C@H]2CCC[C@H](c3nnc(NC(=O)CN4CCCC4=O)s3)C2)s1` [Compound 85, N,N′-(5,5′-((1S,3S)-cyclohexane-1,3-diyl)bis(1,3,4-thiadiazole-5,2-diyl))bis(2-(2-oxopyrrolidin-1-yl)acetamide)] displayed an IC50 of 500 to 1000 nM. `O=C(Nc1nnc([C@H]2CCC[C@H](c3nnc(NC(=O)C4CCOC4)s3)C2)s1)C1CCOC1` (stereo partly drawn) [Compound 48, N,N′-(5,5′-((1S,3S)-cyclohexane-1,3-diyl)bis(1,3,4-thiadiazole-5,2-diyl))bis(tetrahydrofuran-3-carboxamide)] registered an IC50 of 500 to 1000 nM. For the compound `CC(=O)Nc1ccc(CC(=O)Nc2nnc([C@H]3CCC[C@H](c4nnc(NC(=O)Cc5ccc(NC(C)=O)cc5)s4)C3)s2)cc1` (single isomer, unassigned) [Compound 106], the concentration for half-maximal inhibition (IC50) was less than 100 nM. In turn, `O=C(Cc1cccnc1)Nc1nnc([C@H]2CCC[C@H](c3nnc(NC(=O)Cc4cccnc4)s3)C2)s1` [Compound 28, N,N′-(5,5′-((1S,3S)-cyclohexane-1,3-diyl)bis(1,3,4-thiadiazole-5,2-diyl))bis(2-(pyridin-3-yl)acetamide)] had an IC50 of less than 100 nM. As for `O=C(Nc1nnc([C@H]2CCC[C@H](c3nnc(NC(=O)[C@@H](O)c4ccccc4)s3)C2)s1)[C@@H](O)c1ccccc1` [Compound 371, (2R,2′S)—N,N′-(5,5′-((1S,3S)-cyclohexane-1,3-diyl)bis(1,3,4-thiadiazole-5,2-diyl))bis(2-hydroxy-2-phenylacetamide)], the half-maximal inhibitory concentration (IC50) is less than 100 nM. `N#Cc1cccc(CC(=O)Nc2nnc([C@H]3CCC[C@H](c4nnc(NC(=O)Cc5cccc(OC(F)(F)F)c5)s4)C3)s2)n1` [Compound 375, 2-(6-cyanopyridin-2-yl)-N-(5-((1S,3S)-3-(5-(2-(3-(trifluoromethoxy)phenyl)acetamido)-1,3,4-thiadiazol-2-yl)cyclohexyl)-1,3,4-thiadiazol-2-yl)acetamide] yielded an IC50 of less than 100 nM.

For the compound `O=C(Cc1ccccn1)Nc1nnc([C@@H]2CCC[C@@H](c3nnc(NC(=O)Cc4ccccn4)s3)C2)s1` [Compound 17, N,N′-(5,5′-((1R,3R)-cyclohexane-1,3-diyl)bis(1,3,4-thiadiazole-5,2-diyl))bis(2-(pyridin-2-yl)acetamide)], the IC50 fell in the range of 1000 to 2000 nM.

In the case of `O=C(Cc1ccc2c(c1)OCO2)Nc1nnc([C@H]2CCC[C@H](c3nnc(NC(=O)Cc4ccc5c(c4)OCO5)s3)C2)s1` [Cmpd 86], the IC50 was less than 100 nM.

With `O=C(Cc1ncccn1)Nc1nnc([C@H]2CCC[C@H](c3nnc(NC(=O)Cc4ncccn4)s3)C2)s1` [Compound 27, N,N′-(5,5′-((1S,3S)-cyclohexane-1,3-diyl)bis(1,3,4-thiadiazole-5,2-diyl))bis(2-(pyrimidin-2-yl)acetamide)], the IC50 is less than 100 nM. Compound `O=C(Cc1ccc(N2CC(F)C2)cn1)Nc1nnc([C@H]2CCC[C@H](c3nnc(NC(=O)Cc4ccc(N5CC(F)C5)cn4)s3)C2)s1` [Compound 357] yielded an IC50 of less than 100 nM. Turning to `CCCC(=O)Nc1nnc([C@H]2CCC[C@H](c3nnc(NC(=O)CCC)s3)C2)s1` [Compound 37, N,N′-(5,5′-((1S,3S)-cyclohexane-1,3-diyl)bis(1,3,4-thiadiazole-5,2-diyl))dibutyramide], the IC50 is 100 to 500 nM.

For `N#Cc1ccc(CC(=O)Nc2nnc([C@H]3CCC[C@H](c4nnc(NC(=O)Cc5ccc(C#N)cn5)s4)C3)s2)nc1` (single isomer, unassigned) [Compound 101], the IC50 was less than 100 nM. Compound `O=C(Cc1cccc(CO)c1)Nc1nnc([C@H]2CCC[C@H](c3nnc(NC(=O)Cc4cccc(CO)c4)s3)C2)s1` [Compound 351] yielded a half-maximal inhibitory concentration (IC50) of less than 100 nM. In the case of `O=C(Cc1cccc(OC(F)(F)F)c1)Nc1nnc([C@H]2CC[C@H](c3nnc(NC(=O)[C@@H](O)c4ccccc4)s3)C2)s1` [Compound 374, (S)-2-hydroxy-2-phenyl-N-(5-((1S,3S)-3-(5-(2-(3-(trifluoromethoxy)phenyl)acetamido)-1,3,4-thiadiazol-2-yl)cyclopentyl)-1,3,4-thiadiazol-2-yl)acetamide], the IC50 is less than 100 nM. The compound `O=C(CC1CC1)Nc1nnc([C@H]2CCC[C@H](c3nnc(NC(=O)CC4CC4)s3)C2)s1` [Compound 49, N,N′-(5,5′-((1S,3S)-cyclohexane-1,3-diyl)bis(1,3,4-thiadiazole-5,2-diyl))bis(2-cyclopropylacetamide)] returned an IC50 of 100 to 500 nM.

`CC(C)C(=O)Nc1nnc([C@H]2CCC[C@H](c3nnc(NC(=O)C(C)C)s3)C2)s1` (single isomer, unassigned) [Compound 98] gave a concentration for half-maximal inhibition (IC50) of 100 to 500 nM. Take `O=C(Cc1ccc(N2CC(F)C2)cn1)Nc1nnc([C@H]2CC[C@H](c3nnc(NC(=O)Cc4ccc(N5CC(F)C5)cn4)s3)C2)s1` [Compound 363]: the IC50 is less than 100 nM. To `O=C(Cc1cccc(OC(F)(F)F)c1)Nc1nnc([C@H]2CCC[C@H](c3nnc(NC(=O)[C@@H](O)c4ccccc4)s3)C2)s1` [Compound 372, (S)-2-hydroxy-2-phenyl-N-(5-((1S,3S)-3-(5-(2-(3-(trifluoromethoxy)phenyl)acetamido)-1,3,4-thiadiazol-2-yl)cyclohexyl)-1,3,4-thiadiazol-2-yl)acetamide] belongs less than 100 nM; to `O=C(Cc1ccc([N+](=O)[O-])cc1)Nc1nnc([C@H]2CCC[C@H](c3nnc(NC(=O)Cc4ccc([N+](=O)[O-])cc4)s3)C2)s1` [Compound 64, N,N′-(5,5′-((1S,3S)-cyclohexane-1,3-diyl)bis(1,3,4-thiadiazole-5,2-diyl))bis(2-(4-nitrophenyl)acetamide)], 1000 to 2000 nM.

As for `CC(=O)Nc1nnc([C@H]2CCC[C@H](c3nnc(NC(C)=O)s3)C2)s1` [Compound 41], the IC50 lay in the range of 100 to 500 nM. Consider `CC(C)(CO)C(=O)Nc1nnc([C@H]2CCC[C@H](c3nnc(NC(=O)C(C)(C)CO)s3)C2)s1` [Compound 63, N,N′-(5,5′-((1S,3S)-cyclohexane-1,3-diyl)bis(1,3,4-thiadiazole-5,2-diyl))bis(3-hydroxy-2,2-dimethylpropanamide)], for which the half-maximal inhibitory concentration (IC50) was 500 to 1000 nM. In turn, `CN(C)c1cccc(CC(=O)Nc2nnc([C@H]3CCC[C@H](c4nnc(NC(=O)Cc5cccc(N(C)C)c5)s4)C3)s2)c1` [Compound 35, N,N′-(5,5′-((1S,3S)-cyclohexane-1,3-diyl)bis(1,3,4-thiadiazole-5,2-diyl))bis(2-(3-(dimethylamino)phenyl)acetamide)] had an IC50 of less than 100 nM. To `COc1ccccc1CC(=O)Nc1nnc([C@@H]2CC[C@@H](c3nnc(NC(=O)Cc4ccccc4OC)s3)C2)s1` (stereo in doubt) [Compound 291, N,N′-(5,5′-((1S,3S)-cyclopentane-1,3-diyl)bis(1,3,4-thiadiazole-5,2-diyl))bis(2-(2-methoxyphenyl)acetamide)] belongs less than 100 nM.

`O=C(Cc1cccc(N2CC(F)C2)c1)Nc1nnc([C@H]2CCC[C@H](c3nnc(NC(=O)Cc4cccc(N5CC(F)C5)c4)s3)C2)s1` [Compound 348]: the IC50 was less than 100 nM. To `CC(=O)N(C)c1ccc(CC(=O)Nc2nnc([C@H]3CCC[C@H](c4nnc(NC(=O)Cc5ccc(N(C)C(C)=O)cn5)s4)C3)s2)nc1` [Compound 368] belongs less than 100 nM. To `N#Cc1cccc(CC(=O)Nc2nnc([C@H]3CCC[C@H](c4nnc(NC(=O)Cc5cccc(C6CCCNC6)c5)s4)C3)s2)c1` (stereo partly drawn) [Compound 367, 2-(3-cyanophenyl)-N-(5-((1S,3S)-3-(5-(2-(3-(piperidin-3-yl)phenyl)acetamido)-1,3,4-thiadiazol-2-yl)cyclohexyl)-1,3,4-thiadiazol-2-yl)acetamide] belongs less than 100 nM.
